Source: PubChem BioAssay (NCI)
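In this assay, cells in 96-well plates receive the compound at five concentrations for 48 hours. Endpoints are linearly interpolated between the surrounding concentrations. TGI is the concentration that stops growth completely.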

Experiments:
Test in all cases: NCI tumour cell line growth inhibition, 48 h
OVCAR-8 ovarian = system: OVCAR-8 ovarian
COLO 205 colon = system: COLO 205 colon
SK-MEL-28 melanoma = system: SK-MEL-28 melanoma
NCI-H23 lung = system: NCI-H23 lung
SF-268 CNS = system: SF-268 CNS
MDA-N = system: MDA-N
SF-539 CNS = system: SF-539 CNS
IGROV1 ovarian = system: IGROV1 ovarian
MALME-3M melanoma = system: MALME-3M melanoma
HCC-2998 colon = system: HCC-2998 colon
SK-MEL-2 melanoma = system: SK-MEL-2 melanoma
LOX IMVI melanoma = system: LOX IMVI melanoma
BT-549 breast = system: BT-549 breast
KM12 colon = system: KM12 colon
TK-10 renal = system: TK-10 renal
HCT-15 colon = system: HCT-15 colon
SNB-19 CNS = system: SNB-19 CNS
SF-295 CNS = system: SF-295 CNS
MDA-MB-231 breast = system: MDA-MB-231 breast
MOLT-4 leukemia = system: MOLT-4 leukemia
NCI/ADR-RES ovarian = system: NCI/ADR-RES ovarian
T-47D breast = system: T-47D breast
786-0 renal = system: 786-0 renal
DU-145 prostate = system: DU-145 prostate
K-562 leukemia = system: K-562 leukemia
MDA-MB-435 = system: MDA-MB-435
SN12C renal = system: SN12C renal
M14 melanoma = system: M14 melanoma
CAKI-1 renal = system: CAKI-1 renal
UACC-62 melanoma = system: UACC-62 melanoma
A498 renal = system: A498 renal
NCI-H522 lung = system: NCI-H522 lung
NCI-H226 lung = system: NCI-H226 lung
SNB-75 CNS = system: SNB-75 CNS
OVCAR-4 ovarian = system: OVCAR-4 ovarian
HCT-116 colon = system: HCT-116 colon
HOP-62 NSCLC = system: HOP-62 NSCLC
RXF 393 renal = system: RXF 393 renal
SW-620 colon = system: SW-620 colon
NCI-H460 lung = system: NCI-H460 lung
U251 CNS = system: U251 CNS
SK-MEL-5 melanoma = system: SK-MEL-5 melanoma
A549 NSCLC = system: A549 NSCLC
EKVX NSCLC = system: EKVX NSCLC
SR leukemia = system: SR leukemia
CCRF-CEM leukemia = system: CCRF-CEM leukemia
OVCAR-5 ovarian = system: OVCAR-5 ovarian
UO-31 renal = system: UO-31 renal
ACHN renal = system: ACHN renal
UACC-257 melanoma = system: UACC-257 melanoma
SK-OV-3 ovarian = system: SK-OV-3 ovarian
MCF7 breast = system: MCF7 breast
PC-3 prostate = system: PC-3 prostate
RPMI-8226 leukemia = system: RPMI-8226 leukemia
OVCAR-3 ovarian = system: OVCAR-3 ovarian
HOP-92 NSCLC = system: HOP-92 NSCLC
HT29 colon = system: HT29 colon
HL-60(TB) leukemia = system: HL-60(TB) leukemia

COc1ccc2c(c1)CC[C@@H]1[C@@H]2CC[C@]2(C)C(=O)/C(=C/c3ccc(C#N)cc3)C[C@@H]12
TGI (OVCAR-8 ovarian): > 100 µM
TGI (COLO 205 colon): > 100 µM
TGI (SK-MEL-28 melanoma): > 100 µM
TGI (NCI-H23 lung): > 100 µM
TGI (SF-268 CNS): > 100 µM
TGI (MDA-N): > 100 µM
TGI (SF-539 CNS): > 100 µM
TGI (IGROV1 ovarian): > 100 µM
TGI (MALME-3M melanoma): > 100 µM
TGI (HCC-2998 colon): > 100 µM
TGI (SK-MEL-2 melanoma): > 100 µM
TGI (LOX IMVI melanoma): > 100 µM
TGI (BT-549 breast): > 100 µM
TGI (KM12 colon): > 100 µM
TGI (TK-10 renal): > 100 µM
TGI (HCT-15 colon): > 100 µM
TGI (SNB-19 CNS): > 100 µM
TGI (SF-295 CNS): > 100 µM
TGI (MDA-MB-231 breast): > 100 µM
TGI (MOLT-4 leukemia): > 100 µM
TGI (NCI/ADR-RES ovarian): > 100 µM
TGI (T-47D breast): > 100 µM
TGI (786-0 renal): > 100 µM
TGI (DU-145 prostate): > 100 µM
TGI (K-562 leukemia): > 100 µM
TGI (MDA-MB-435): > 100 µM
TGI (SN12C renal): > 100 µM
TGI (M14 melanoma): > 100 µM
TGI (CAKI-1 renal): > 100 µM
TGI (UACC-62 melanoma): > 100 µM
TGI (A498 renal): > 100 µM
TGI (NCI-H522 lung): > 100 µM
TGI (NCI-H226 lung): > 100 µM
TGI (SNB-75 CNS): > 100 µM
TGI (OVCAR-4 ovarian): > 100 µM
TGI (HCT-116 colon): > 100 µM
TGI (HOP-62 NSCLC): > 100 µM
TGI (RXF 393 renal): > 100 µM
TGI (SW-620 colon): > 100 µM
TGI (NCI-H460 lung): > 100 µM
TGI (U251 CNS): > 100 µM
TGI (SK-MEL-5 melanoma): > 100 µM
TGI (A549 NSCLC): > 100 µM
TGI (EKVX NSCLC): > 100 µM
TGI (SR leukemia): > 100 µM
TGI (CCRF-CEM leukemia): > 100 µM
TGI (OVCAR-5 ovarian): > 100 µM
TGI (UO-31 renal): > 100 µM
TGI (ACHN renal): > 100 µM
TGI (UACC-257 melanoma): > 100 µM
TGI (SK-OV-3 ovarian): > 100 µM
TGI (MCF7 breast): > 100 µM
TGI (PC-3 prostate): > 100 µM
TGI (RPMI-8226 leukemia): > 100 µM

COc1cc(Br)cc2cc(C3=CSC4=NCCN34)c(=O)oc12
TGI (OVCAR-8 ovarian): 34.4 µM
TGI (COLO 205 colon): 43.5 µM
TGI (SK-MEL-28 melanoma): 59.4 µM
TGI (OVCAR-3 ovarian): 33.1 µM
TGI (NCI-H23 lung): 40.8 µM
TGI (MDA-N): 34.4 µM
TGI (SF-539 CNS): 37.4 µM
TGI (IGROV1 ovarian): 32.5 µM
TGI (HOP-92 NSCLC): 36.7 µM
TGI (SK-MEL-2 melanoma): 40 µM
TGI (LOX IMVI melanoma): 33.7 µM
TGI (BT-549 breast): 42.2 µM
TGI (KM12 colon): 39 µM
TGI (TK-10 renal): 34.8 µM
TGI (HCT-15 colon): 37.2 µM
TGI (SNB-19 CNS): 33.4 µM
TGI (SF-295 CNS): 35.8 µM
TGI (MDA-MB-231 breast): 36 µM
TGI (MOLT-4 leukemia): 69.5 µM
TGI (NCI/ADR-RES ovarian): > 100 µM
TGI (T-47D breast): 42.2 µM
TGI (786-0 renal): 32.7 µM
TGI (DU-145 prostate): 33 µM
TGI (K-562 leukemia): > 100 µM
TGI (MDA-MB-435): 33.9 µM
TGI (SN12C renal): 32 µM
TGI (M14 melanoma): 49.4 µM
TGI (CAKI-1 renal): > 100 µM
TGI (HT29 colon): 34.7 µM
TGI (UACC-62 melanoma): 33.6 µM
TGI (HL-60(TB) leukemia): 77.6 µM
TGI (SNB-75 CNS): 43.3 µM
TGI (OVCAR-4 ovarian): 37.2 µM
TGI (HCT-116 colon): 32.2 µM
TGI (HOP-62 NSCLC): 34.9 µM
TGI (RXF 393 renal): 34.6 µM
TGI (SW-620 colon): 49.1 µM
TGI (NCI-H460 lung): 40.3 µM
TGI (U251 CNS): 32.6 µM
TGI (SK-MEL-5 melanoma): 35.3 µM
TGI (A549 NSCLC): 50.8 µM
TGI (EKVX NSCLC): 32.3 µM
TGI (SR leukemia): 63.4 µM
TGI (CCRF-CEM leukemia): 56.8 µM
TGI (OVCAR-5 ovarian): 54.5 µM
TGI (UO-31 renal): 35.6 µM
TGI (ACHN renal): 80.6 µM
TGI (UACC-257 melanoma): 65.8 µM
TGI (SK-OV-3 ovarian): 66.2 µM
TGI (MCF7 breast): 33 µM
TGI (PC-3 prostate): 35.6 µM
TGI (RPMI-8226 leukemia): 55.3 µM

CC(C)(/C=N\O)NO
TGI (OVCAR-8 ovarian): > 10 µM
TGI (COLO 205 colon): > 10 µM
TGI (OVCAR-3 ovarian): > 10 µM
TGI (NCI-H23 lung): > 10 µM
TGI (SF-268 CNS): > 10 µM
TGI (MDA-N): > 10 µM
TGI (HOP-92 NSCLC): > 10 µM
TGI (MALME-3M melanoma): > 10 µM
TGI (HCC-2998 colon): > 10 µM
TGI (SK-MEL-2 melanoma): > 10 µM
TGI (LOX IMVI melanoma): > 10 µM
TGI (BT-549 breast): > 10 µM
TGI (KM12 colon): > 10 µM
TGI (TK-10 renal): > 10 µM
TGI (HCT-15 colon): > 10 µM
TGI (SNB-19 CNS): > 10 µM
TGI (SF-295 CNS): > 10 µM
TGI (MDA-MB-231 breast): > 10 µM
TGI (MOLT-4 leukemia): > 10 µM
TGI (NCI/ADR-RES ovarian): > 10 µM
TGI (T-47D breast): > 10 µM
TGI (786-0 renal): > 10 µM
TGI (DU-145 prostate): > 10 µM
TGI (K-562 leukemia): > 10 µM
TGI (MDA-MB-435): > 10 µM
TGI (SN12C renal): > 10 µM
TGI (M14 melanoma): > 10 µM
TGI (CAKI-1 renal): > 10 µM
TGI (HT29 colon): > 10 µM
TGI (HL-60(TB) leukemia): > 10 µM
TGI (NCI-H522 lung): > 10 µM
TGI (NCI-H226 lung): > 10 µM
TGI (OVCAR-4 ovarian): > 10 µM
TGI (HCT-116 colon): > 10 µM
TGI (HOP-62 NSCLC): > 10 µM
TGI (RXF 393 renal): > 10 µM
TGI (SW-620 colon): > 10 µM
TGI (NCI-H460 lung): > 10 µM
TGI (U251 CNS): > 10 µM
TGI (A549 NSCLC): > 10 µM
TGI (EKVX NSCLC): > 10 µM
TGI (SR leukemia): > 10 µM
TGI (CCRF-CEM leukemia): > 10 µM
TGI (OVCAR-5 ovarian): > 10 µM
TGI (UO-31 renal): > 10 µM
TGI (ACHN renal): > 10 µM
TGI (UACC-257 melanoma): > 10 µM
TGI (MCF7 breast): > 10 µM
TGI (PC-3 prostate): > 10 µM
TGI (RPMI-8226 leukemia): > 10 µM
